Values joined by “and” are separate entries in the source; they are usually repeats but may differ in a detail not shown here. Identical values can stand only once. Inconclusive results and toxic doses are left out.
Test system: CD2F1 mice, L1210 leukemia ip, survival T/C
Test: NCI In Vivo Anticancer Drug Screen. Data for tumor model L1210 Leukemia (intraperitoneal) in CD2F1 (CDF1) mice
Details: endpoint: mean survival time, higher = longer survival
Method in brief: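 Antitumor effect is scored in animals hosting a serially transplanted tumor. Values compare compound-dosed animals against vehicle-only controls as a simple quotient.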

[1] = dose: 25.0 mg/kg/injection, schedule: Q01DX009 (ip), vehicle: saline with Tween-80
[2] = dose: 50.0 mg/kg/injection, schedule: Q01DX009 (ip), vehicle: saline with Tween-80
[3] = dose: 100.0 mg/kg/injection, schedule: Q01DX009 (ip), vehicle: saline with Tween-80
[4] = dose: 200.0 mg/kg/injection, schedule: Q01DX009 (ip), vehicle: saline with Tween-80
[5] = dose: 400.0 mg/kg/injection, schedule: Q01DX009 (ip), vehicle: saline with Tween-80
[6] = dose: 100.0 mg/kg/injection, schedule: Q04DX003 (ip), vehicle: saline with Tween-80
[7] = dose: 200.0 mg/kg/injection, schedule: Q04DX003 (ip), vehicle: saline with Tween-80
[8] = dose: 400.0 mg/kg/injection, schedule: Q04DX003 (ip), vehicle: saline with Tween-80
[9] = dose: 100.0 mg/kg/injection, schedule: Q04DX003 (ip), vehicle: saline
[10] = dose: 200.0 mg/kg/injection, schedule: Q04DX003 (ip), vehicle: saline
[11] = dose: 400.0 mg/kg/injection, schedule: Q04DX003 (ip), vehicle: saline
[12] = dose: 100.0 mg/kg/injection, schedule: Q01DX001 (ip), vehicle: saline with Tween-80
[13] = dose: 200.0 mg/kg/injection, schedule: Q01DX001 (ip), vehicle: saline with Tween-80
[14] = dose: 400.0 mg/kg/injection, schedule: Q01DX001 (ip), vehicle: saline with Tween-80
[15] = dose: 100.0 mg/kg/injection, schedule: Q04DX002 (ip), vehicle: saline with Tween-80
[16] = dose: 200.0 mg/kg/injection, schedule: Q04DX002 (ip), vehicle: saline with Tween-80
[17] = dose: 25.0 mg/kg/injection, schedule: Q01DX009 (ip), vehicle: saline
[18] = dose: 50.0 mg/kg/injection, schedule: Q01DX009 (ip), vehicle: saline

`CCCC(=O)c1cccc([N+](=O)[O-])c1` was tested, and the T/C (dose: 100.0 mg/kg/injection, schedule: Q01DX001 (ip), vehicle: other) was 96 % of control, the T/C (dose: 100.0 mg/kg/injection, schedule: Q04DX002 (ip), vehicle: other) was 98 % of control and the T/C (dose: 100.0 mg/kg/injection, schedule: Q04DX003 (ip), vehicle: other) was 103 % of control. For the same compound, the T/C (dose: 200.0 mg/kg/injection, schedule: Q01DX001 (ip), vehicle: other) was 93 % of control, the T/C (dose: 200.0 mg/kg/injection, schedule: Q04DX002 (ip), vehicle: other) was 100 % of control and the T/C (dose: 200.0 mg/kg/injection, schedule: Q04DX003 (ip), vehicle: other) was 100 % of control. For the same compound, the T/C (dose: 400.0 mg/kg/injection, schedule: Q01DX001 (ip), vehicle: other) was 94 % of control, the T/C (dose: 400.0 mg/kg/injection, schedule: Q04DX002 (ip), vehicle: other) was 98 % of control and the T/C (dose: 400.0 mg/kg/injection, schedule: Q04DX003 (ip), vehicle: other) was 101 % of control. The T/C (dose: 800.0 mg/kg/injection, schedule: Q01DX009 (ip), vehicle: other) was 91 % of control and 94 % of control and 95 % of control.

In the case of `O=c1[nH]c(C(F)(F)F)nc2c1nc1n2CCC1`, the T/C [1] was 102 % of control, the T/C [2] was 111 % of control and the T/C [3] was 103 % of control.

`O=C(/C=C/c1ccccc1)N1CC2CCC(CC2)C1` was tested, and the T/C [2] was 94 % of control, the T/C [3] was 94 % of control and the T/C [4] was 91 % of control.

With `Cc1ccc2ccccc2c1N(CC(=O)O)S(=O)(=O)c1ccccc1` the T/C [3] was 103 % of control, the T/C [4] was 101 % of control and the T/C [5] was 88 % of control.

In the case of `O=S(=O)(O)O.[NH-]C1CCCCCC1[NH-].[Pt+2]` (centres undefined), the T/C (dose: 1.56 mg/kg/injection, schedule: Q04DX003 (ip), vehicle: dextrose) was 205 % of control, the T/C (dose: 3.13 mg/kg/injection, schedule: Q01DX001 (ip), vehicle: dextrose) was 200 % of control and 204 % of control and the T/C (dose: 3.13 mg/kg/injection, schedule: Q04DX003 (ip), vehicle: dextrose) was 188 % of control and 241 % of control and 103 % of control. For the same compound, the T/C (dose: 6.25 mg/kg/injection, schedule: Q01DX001 (ip), vehicle: dextrose) was 170 % of control and 189 % of control, the T/C (dose: 12.5 mg/kg/injection, schedule: Q01DX001 (ip), vehicle: dextrose) was 86 % of control and the T/C (dose: 12.5 mg/kg/injection, schedule: Q04DX003 (ip), vehicle: dextrose) was 97 % of control.

For `CN1NC2(O)C(=O)N(C3CCCCC3)CC2C1c1ccccc1` (centres undefined), the T/C [6] was 86 % of control, the T/C [7] was 93 % of control and the T/C [8] was 101 % of control.

In the case of `NCc1cccc([N+](=O)[O-])c1`, the T/C [9] was 106 % of control, the T/C [10] was 109 % of control and the T/C [11] was 98 % of control.

For `C/C=C\c1ccc(OCCOC(=O)Nc2ccc(Cl)cc2C)c(OC)c1`, the T/C [2] was 87 % of control, the T/C [3] was 92 % of control and the T/C [4] was 100 % of control.

For `c1ccc(-c2ccccc2N=C2N=NN=N2)cc1`, the T/C [12] was 96 % of control, the T/C [6] was 103 % of control and the T/C [13] was 114 % of control. The T/C [7] was 93 % of control, the T/C [14] was 94 % of control and the T/C [8] was 97 % of control.

In the case of `Nc1ccc([N+](=O)[O-])cn1`, the T/C (dose: 75.0 mg/kg/injection, schedule: Q01DX009 (ip), vehicle: saline with Tween-80) was 94 % of control, the T/C [6] was 107 % of control and the T/C (dose: 150.0 mg/kg/injection, schedule: Q01DX009 (ip), vehicle: saline with Tween-80) was 87 % of control. For the same compound, the T/C [7] was 103 % of control, the T/C (dose: 300.0 mg/kg/injection, schedule: Q01DX009 (ip), vehicle: saline with Tween-80) was 93 % of control and the T/C [8] was 96 % of control.

For `CCC(=O)Nc1cc([N+](=O)[O-])cc([N+](=O)[O-])c1`, the T/C [15] was 105 % of control and the T/C [16] was 100 % of control.

With `COc1ccc(-c2cc3ccccc3c(=O)o2)cc1` the T/C [3] was 98 % of control, the T/C [4] was 98 % of control and the T/C [5] was 91 % of control.

With `O=Cc1ccc(O)c(O)c1` the T/C (dose: 12.5 mg/kg/injection, schedule: Q01DX009 (ip), vehicle: saline) was 93 % of control, the T/C [1] was 106 % of control and the T/C [17] was 98 % of control. The T/C [2] was 106 % of control, the T/C [18] was 98 % of control and the T/C [3] was 114 % of control and 102 % of control. The T/C (dose: 100.0 mg/kg/injection, schedule: Q01DX009 (ip), vehicle: saline) was 107 % of control, the T/C [4] was 109 % of control and the T/C (dose: 200.0 mg/kg/injection, schedule: Q01DX009 (ip), vehicle: saline) was 116 % of control. For the same compound, the T/C [5] was 117 % of control.

In the case of `COC(=O)CC(=O)OCC1C=CCC=C1`, the T/C [3] was 98 % of control, the T/C [4] was 98 % of control and the T/C [5] was 100 % of control.

With `CC1=CCC2(C)CCC(C(C)C)C2(O)CC1` (centres undefined) the T/C [9] was 101 % of control, the T/C [10] was 93 % of control and the T/C [11] was 102 % of control.

For `O=C(CCl)OCc1ccc([N+](=O)[O-])o1`, the T/C [6] was 98 % of control and the T/C [7] was 101 % of control.

With `Cc1ccc(S(=O)(=O)NCl)cc1` the T/C [17] was 89 % of control and the T/C [18] was 94 % of control.

For `Nc1ccccc1O`, the T/C [3] was 114 % of control, the T/C [9] was 100 % of control and the T/C [4] was 114 % of control. For the same compound, the T/C [10] was 96 % of control and the T/C [11] was 119 % of control.

With `COc1c(CNC(=O)CCl)cc2[nH]c(C)cc2c1CNC(=O)CCl` the T/C (dose: 12.5 mg/kg/injection, schedule: Q01DX009 (ip), vehicle: Klucel (hydroxypropylcellulose) (HPC)) was 98 % of control, the T/C (dose: 25.0 mg/kg/injection, schedule: Q01DX009 (ip), vehicle: Klucel (hydroxypropylcellulose) (HPC)) was 98 % of control and 101 % of control and the T/C (dose: 50.0 mg/kg/injection, schedule: Q01DX009 (ip), vehicle: Klucel (hydroxypropylcellulose) (HPC)) was 98 % of control and 103 % of control. For the same compound, the T/C (dose: 100.0 mg/kg/injection, schedule: Q01DX009 (ip), vehicle: Klucel (hydroxypropylcellulose) (HPC)) was 97 % of control and 102 % of control, the T/C (dose: 200.0 mg/kg/injection, schedule: Q01DX009 (ip), vehicle: Klucel (hydroxypropylcellulose) (HPC)) was 93 % of control and 104 % of control and the T/C (dose: 400.0 mg/kg/injection, schedule: Q01DX009 (ip), vehicle: Klucel (hydroxypropylcellulose) (HPC)) was 95 % of control.

With `Cc1[nH]c2ccccc2c1C(c1cc(Cl)cc(Cl)c1O)c1c(C)[nH]c2ccccc12` the T/C [1] was 88 % of control, the T/C [2] was 86 % of control and the T/C [3] was 86 % of control. For the same compound, the T/C [4] was 86 % of control.

`CN(C)Cc1cc(Cl)cc(CN(C)C)c1O` was tested, and the T/C (dose: 25.0 mg/kg/injection, schedule: Q04DX003 (ip), vehicle: saline with Tween-80) was 105 % of control, the T/C (dose: 50.0 mg/kg/injection, schedule: Q04DX003 (ip), vehicle: saline with Tween-80) was 97 % of control and the T/C [6] was 101 % of control.

`COc1cccc2c1C(=O)c1c(OC)c(C)cc(OC)c1C2=O` was tested, and the T/C (dose: 12.5 mg/kg/injection, schedule: Q01DX009 (ip), vehicle: other) was 113 % of control, the T/C (dose: 25.0 mg/kg/injection, schedule: Q01DX009 (ip), vehicle: other) was 110 % of control and the T/C (dose: 50.0 mg/kg/injection, schedule: Q01DX009 (ip), vehicle: other) was 110 % of control. The T/C (dose: 100.0 mg/kg/injection, schedule: Q01DX009 (ip), vehicle: other) was 110 % of control and the T/C (dose: 200.0 mg/kg/injection, schedule: Q01DX009 (ip), vehicle: other) was 117 % of control.

`CC(=O)OC1C2(CC3N4C(=O)C5(CO)SSC4(CC31O)C(=O)N5C)OC(C)C(C)(C)C2=O` (centres undefined) was tested, and the T/C (dose: 0.15 mg/kg/injection, schedule: Q01DX009 (ip), vehicle: saline) was 101 % of control, the T/C (dose: 0.16 mg/kg/injection, schedule: Q01DX009 (ip), vehicle: saline with Tween-80) was 97 % of control and the T/C (dose: 0.31 mg/kg/injection, schedule: Q01DX009 (ip), vehicle: saline with Tween-80) was 101 % of control. The T/C (dose: 0.31 mg/kg/injection, schedule: Q01DX009 (ip), vehicle: saline) was 100 % of control, the T/C (dose: 0.62 mg/kg/injection, schedule: Q01DX009 (ip), vehicle: saline) was 100 % of control and the T/C (dose: 0.63 mg/kg/injection, schedule: Q01DX009 (ip), vehicle: saline with Tween-80) was 101 % of control. For the same compound, the T/C (dose: 1.25 mg/kg/injection, schedule: Q01DX009 (ip), vehicle: saline) was 120 % of control and 98 % of control and 100 % of control, the T/C (dose: 2.5 mg/kg/injection, schedule: Q01DX009 (ip), vehicle: saline with Tween-80) was 98 % of control and the T/C (dose: 2.5 mg/kg/injection, schedule: Q01DX009 (ip), vehicle: saline) was 107 % of control.

For `CS(=O)(=O)OCCCN(CCCOS(C)(=O)=O)c1ccc(C=Nc2ccc(-c3csc(COc4ccc(Br)cc4)n3)cc2)cc1`, the T/C [12] was 94 % of control, the T/C [13] was 89 % of control and the T/C [14] was 88 % of control.

`O=C(NCC1CCCCO1)Nc1ccc(Cl)cc1` (centres undefined) was tested, and the T/C [15] was 110 % of control, the T/C [16] was 102 % of control and the T/C (dose: 400.0 mg/kg/injection, schedule: Q04DX002 (ip), vehicle: saline with Tween-80) was 94 % of control.

Reference: PubChem BioAssay AID256 (DTP/NCI, 2004)
